Assay results from ChEMBL document CHEMBL6127087 (Eur J Med Chem, 2024).
The source made the active and inactive calls. No cut-off for these calls is given here.

Columns and labels:
Mus musculus = test: Anti-inflammatory activity in LPS-induced male C57BL/6 mouse model of acute […] injury assessed as inhibition of CXCL1 release at 2 to 6 mg/kg, IG preadministered with compound for 7 days followed by LPS administration and measured after 24 hrs by ELISA; type: functional, organism-based; settings: dose 2-6 mg/kg, time 8.0 day
[1] = Half-life in male Sprague-Dawley rat at 10 mg/kg, iv measured after 24 hrs by LC-MS/MS analysis; type: ADME, organism-based; settings: male, Sprague-Dawley, in vivo

For `O=C(O)CCC(=O)N1N=C(c2ccc[nH]2)CC1c1cnc2ccccc2c1` (configuration not stated), the Activity (Mus musculus) was “Active” and the half-life [1] was 1.5 h.
